Series [1] concerns influenza A virus (A/Puerto Rico/8/34). Briefly: microbe, parasite or virus in culture. The conditions noted are these: MDCK, read-out: IC50, Inhibition of A/Puerto Rico/8/34 Infection.
For series [2] the test system is unchanged. The conditions noted are these: for IC50: read-out: IC50, Inhibition of A/Puerto Rico/8/34 Infection, MDCK cells, 100 TCID50, MTT-based, 48 h post-infection.
The nature of another series: in vitro. The conditions noted are these: dog.
A short description of another series: Cytotoxicity MTT assay. The note with it: dog, MDCK cells. In general terms: Tetrazolium assays rely on reduction of a dye to a coloured formazan, in cell work by metabolically active cells.
For the next series, the system named is caveolin-1. In kind it is cell-based, human.
The subject of the next series is A/WSN/33 (H1N1). Briefly: microbe, parasite or virus in culture. It is filed as cell-based, Influenza A virus (H1N1). The conditions noted are these: Influenza A virus, MDCK.
The subject of series [3] is H5N1 pseudovirus A/Hong Kong/156/1997. Briefly: organism not typed. In kind it is cell-based, H5N1 IAV.
In series [4] the test system is IAV proteins NP and PB2, NP mRNA. It is filed as cell-based. The note with it: MDCK cells.
Series [5] relates to H5N1 pseudovirus A/Xinjiang/1/2006. Briefly: organism not typed. In kind it is cell-based, H5N1 IAV.
The test system of series [6] is clathrin-associated uptake of transferrin in A549 cells. In words: Transferrin absorption test. The note with it: pretreated 3 h, transferrin 15 µg/mL 30 min, Western blotting. In general terms: A western blot detects proteins with antibodies after separation by electrophoresis.
Series [7] deals with influenza viral polymerase activity. In kind it is cell-based, Influenza A virus.
Series [8] concerns IAV-induced Ca2+ influx in A549 cells. In words: Intracellular Ca2+ level during IAV infection (BBcellProbeTMF3). It is filed as cell-based, human. The note with it: A/WSN/33.
The test system of series [9] is H5N1 pseudovirus A/Anhui/1/2005. Briefly: organism not typed. In kind it is cell-based, H5N1 IAV.
The test system of a further series is A/Aichi/2/68 (H3N2). In words: microbe, parasite or virus in culture. The note with it: Influenza A virus, H3N2, MDCK. It is filed as cell-based.
Series [10] relates to IAV replication in A549 cells. In kind it is cell-based. The conditions noted are these: viral protein and gene.
The next series deals with A/FM-1/1/47 (H1N1). Briefly: microbe, parasite or virus in culture. It is filed as cell-based. The note with it: Influenza A virus, H1N1, MDCK.
Series [11] deals with clathrin-mediated endocytosis in A549 cells. Briefly: Fluorescence confocal assay, Tf-568 uptake. The conditions noted are these: 20 μM, 3 h pre-treatment. It is filed as cell-based, human.
Series [12] relates to H5N1 pseudovirus A/Qinghai/59/2005. Briefly: organism not typed. In kind it is cell-based, H5N1 IAV.
Series [13] relates to vesicular stomatitis virus G (VSV-G) PsV. It is filed as cell-based.
In series [14] the test system is caveolin-mediated endocytosis in A549 cells. In kind it is cell-based, human.

Where two headings read alike, the source gives them in different places. Where only a bound is given, the exact number is not on record here.

As for `COCCOC(=O)C1=C(C)NC(C)=C(C(=O)OC/C=C/c2ccccc2)C1c1cccc([N+](=O)[O-])c1` (centres unmarked) [Cilnidipine], the IC50 in series [1] (48 h) was found to be 14.3 ± 2.66 µM. For the same compound, the “SI (CC50/ IC50)” value in [2] (A/Puerto Rico/8/34) is reported as over 14.02. Also, in the series “in vitro”, the CC50 at 48 h is over 200 µM.

`COCCOC(=O)C1=C(C)NC(C)=C(C(=O)OC(C)C)C1c1cccc([N+](=O)[O-])c1` (centres unmarked) [Nimodipine] yielded a CC50 at 48 h in “Cytotoxicity MTT assay” of over 200 µM. In [2], the “SI (CC50/ IC50)” value is recorded as over 15.58 and the IC50 came to 12.8 ± 1.72 µM.

`COC(=O)C1=C(C)NC(C)=C(C(=O)OCC(C)C)C1c1ccccc1[N+](=O)[O-]` (centres unmarked) [Nisoldipine]: the “expression of caveolin-1” value with caveolin-1 is “reduce the expression of caveolin-1”. Further, in the series “Cytotoxicity MTT assay”, the CC50 at 48 h was over 200 µM. Besides, the IC50 with A/WSN/33 (H1N1) was 4.47 ± 0.25 µM; in series [3] it was 4.47 ± 0.47 µM; in series [5], 3.87 ± 0.51 µM; in series [9], 2590 ± 460 nM; in the series on A/Aichi/2/68 (H3N2), 5.68 ± 0.61 µM; in series [2] it was 4.74 ± 0.76 µM. The IC50 in the series with A/FM-1/1/47 (H1N1) came out at 6.96 ± 0.78 µM; in series [12], 5.84 ± 0.64 µM. Besides, the “expression of IAV proteins NP and PB2” value in [4] (Western blotting, dose-dependent) was “significantly inhibited”. Further, in series [4] (qRT-PCR), the “NP mRNA expression” value is given as “decreased”. In addition, the internalization of transferrin result in [6] is “markedly reduced”. The “influenza viral polymerase activity” value in [7] is recorded as “did not affect”. In addition, the “IAV-induced Ca2+ influx” value in series [8] is reported as “inhibited”. For the same compound, the “IAV replication in A549 cells” value in [10] is on record as “interfered with IAV replication”. Moreover, the “transferrin (Tf-568) uptake” value in series [11] was “decreased”. Moreover, in series [13], the “inhibition of VSV-G PsV infection” value is “much less efficiency”. The “CTB-FITC endocytosis (immunostaining)” value in series [14] is on record as “less immunostaining”.

In “Cytotoxicity MTT assay”, `CCOC(=O)C1=C(C)NC(C)=C(C(=O)OC)C1c1cccc([N+](=O)[O-])c1` (centres unmarked) [Nitrendipine] gave a CC50 at 48 h of 171 ± 14.1 µM. Besides, in [2], the “SI (CC50/ IC50)” value came to 23.56 and the IC50 stood at 7.26 ± 1.89 µM.

As to `CC(=O)N[C@H]1[C@H]([C@H](O)[C@H](O)CO)OC(C(=O)O)=C[C@@H]1N=C(N)N` [Zanamivir], in [1], the IC50 stood at 0.00126 ± 0.0003 µM. Further, the CC50 at 48 h in “Cytotoxicity MTT assay” was over 0.2 µM. In addition, the “SI (CC50/ IC50)” value in [2] is given as over 158.73.

For methyl-β-cyclodextrin [MβCD], the “CTB-FITC endocytosis (immunostaining)” value in series [14] is recorded as “less immunostaining”.
